Experiments:
[1] = system: mouse experimental model of multiple sclerosis; assay: inhibition of spasticity in a mouse experimental model of multiple sclerosis; type: in vivo; settings: for spasticity (limb stiffness assessed by the force required to bend the limb): ***P<0.001 compared to baseline
Method: FIG. 7 illustrates cannabinoid-mediated inhibition of spasticity in a mouse experimental model of multiple sclerosis^35. Compounds were injected intravenously (i.v.) and the level of THC (1 mg/kg i.v.) was matched to the THC content in a cannabis extract (obtained under UK Home Office Licence). […] Nabilone (1 mg/kg i.v.) a synthetic analogue of THC (generously supplied by Cambridge Biomedicals, Cesamet) could inhibit spasticity to maximal levels (˜45-50% inhibition). Mean change compared to baseline (n=10/group)

people with chronic pain = settings: oral; chronic pain (n=60), those with MS; cited from earlier work
[2] = system: levadopa-induced dyskinesia in Parkinson's disease; settings: in vivo; cited from earlier work
NMDA receptor = settings: cited from earlier work
head trauma = settings: phase II; cited from earlier work
[3] = system: mRNA of IL-1, IL-6 and TNFα; settings: BALB/C mice injected with cannabidiol; cited from earlier work
[4] = in vivo; cited from earlier work
TPA-induced erythema = settings: applied topically; cited from earlier work
[5] = system: mouse peritoneal macrophages activated by LPS and IFNγ; settings: cited from earlier work
Legionella = settings: mouse, in vivo; cited from earlier work
human leukocytes = settings: cited from earlier work; for IFNγ synthesis: high concentrations (5-24µg/ml); for IFNγ production: low concentrations
PBQ-induced writhing = settings: given orally at doses up to 10 mg/kg; cited from earlier work
CB2 = CB2 (Homo sapiens, UniProt P34972); settings: cited from earlier work
[6] = system: tics in Tourette's syndrome; settings: oral; cited from earlier work
CB1 receptors = CB1 receptors (Homo sapiens, UniProt P21554); settings: cited from earlier work
MS patients = settings: within one month after initiation of treatment; cited from earlier work

CB2, sequence (P34972 whole entry, species assumed): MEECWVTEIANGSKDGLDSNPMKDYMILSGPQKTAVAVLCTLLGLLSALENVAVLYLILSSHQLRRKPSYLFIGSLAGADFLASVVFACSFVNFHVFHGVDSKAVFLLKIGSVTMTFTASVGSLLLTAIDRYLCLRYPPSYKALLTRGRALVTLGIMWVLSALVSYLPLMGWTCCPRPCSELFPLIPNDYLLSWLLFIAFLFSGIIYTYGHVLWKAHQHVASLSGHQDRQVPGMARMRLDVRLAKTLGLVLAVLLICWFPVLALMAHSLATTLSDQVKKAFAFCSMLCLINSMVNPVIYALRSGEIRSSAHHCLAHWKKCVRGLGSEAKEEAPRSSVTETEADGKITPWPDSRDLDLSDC
CB1 receptors, sequence (P21554 whole entry): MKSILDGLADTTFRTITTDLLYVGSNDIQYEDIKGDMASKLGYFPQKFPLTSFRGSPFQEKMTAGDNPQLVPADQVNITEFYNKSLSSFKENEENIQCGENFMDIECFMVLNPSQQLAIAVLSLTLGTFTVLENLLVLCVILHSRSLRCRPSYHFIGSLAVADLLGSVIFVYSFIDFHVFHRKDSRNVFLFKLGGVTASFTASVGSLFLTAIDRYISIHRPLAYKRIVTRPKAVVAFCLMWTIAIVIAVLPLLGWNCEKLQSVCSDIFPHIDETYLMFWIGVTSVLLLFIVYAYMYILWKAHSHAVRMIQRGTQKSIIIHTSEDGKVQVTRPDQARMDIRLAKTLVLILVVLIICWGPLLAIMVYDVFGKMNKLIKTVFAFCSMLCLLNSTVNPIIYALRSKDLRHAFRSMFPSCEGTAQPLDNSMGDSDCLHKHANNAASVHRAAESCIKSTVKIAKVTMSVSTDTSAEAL

## CCCCCCC(C)(C)c1cc(O)c2c(c1)OC(C)(C)C1CCC(=O)CC21 (stereo not drawn) [Nabilone]
[1]; Mus musculus, iv, 1 mg/kg i.v., mean change compared to baseline, maximal levels
  inhibition at 1 mg/kg: 45 to 50%
People with chronic pain
  MS patients reporting some analgesic effect: six of 16
[2]
  levadopa-induced dyskinesia: inhibit

## CCCCCCC(C)(C)c1cc(O)c2c(c1)OC(C)(C)[C@H]1CC=C(CO)C[C@H]21 [dexanabinol]
NMDA receptor
  NMDA receptor activity: NMDA receptor antagonist
Head trauma
  efficacy in head trauma: some efficacy

## C=C(C)[C@@H]1CCC(C)=C[C@H]1c1c(O)cc(CCCCC)cc1O [Cannabidiol]
[3]
  level of mRNA of IL-1, IL-6 and TNFα: did not show significant change
[4]
  psychoactivity: no psychotropic
TPA-induced erythema
  TPA-induced erythema: reduce
[5]
  nitric oxide (NO) production: inhibited
Legionella
  mortality: not affected
Human leukocytes
  IL-1 production: decreased
  IL-2 secretion: did not affect
  TNFα production: decreased
  IFNγ synthesis: completely blocked
  IFNγ production: increase
PBQ-induced writhing
  PBQ-induced writhing: inhibited
CB2
  binding to CB2 receptor: does not bind

## CCCCCc1cc(O)c2c(c1)OC(C)(C)[C@@H]1CCC(C)=C[C@@H]21 [THC, delta 9 tetrahydrocannabinol]
[1]; THC 1 mg/kg i.v.
  inhibition of spasticity: capacity to induce maximal inhibition of spasticity
[5]
  nitric oxide (NO) production: inhibited
Human leukocytes
  IFNγ synthesis: completely blocked
  IFNγ production: increase
[6]
  tics: can inhibit tics

## CCCCCCC(C)(C)c1cc(O)c2c(c1)OC(C)(C)[C@@H]1CC=C(C(=O)O)C[C@@H]21 [ajulemic acid]
[1]
  spasticity (limb stiffness assessed by the force required to bend the limb): inhibits spasticity
[1]; listed as Ajulemic acid
  spasticity (limb stiffness assessed by the force required to bend the limb): anti-spastic
[4]
  cannabimimetic effects: dose not induce cannabimimetic effects
CB1 receptors
  direct stimulation of CB1 receptors: does not directly stimulate CB1 receptors to a significant extent

B1: IFN-.gamma.: cytokine administered in attempts to alleviate the symptoms of MS (protein, UniProt P01579 24-161, looked up)
Interferon gamma: QDPYVKEAENLKKYFNAGHSDVADNGTLFLGILKNWKEESDRKIMQSQIVSFYFKLFKNFKDDQSIQKSVETIKEDMNVKFFNSNKKKRDDFEKLTNYSVTDLNVQRKAIHELIQVMAELSPAAKTGKRKRSQMLFRG
MS patients
  patients with clinical exacerbation: 7 of 18
